One data set has as its target Cannabinoid receptor 2 (Homo sapiens, UniProt P34972). The experiment in a line: Displacement of [3H]CP55940 from human CB2 receptor expressed in HEK293 cell membranes assessed as inhibition constant incubated for 90 mins by liquid scintillation spectrometry analysis. On the set-up: species or system Membrane. On the technique in general: Displacement assays read how much labelled ligand stays bound in the presence of the test substance.

The target in the next data set is Cannabinoid receptor 1 (Homo sapiens, UniProt P21554). Description: Displacement of [3H]CP55940 from human CB1 receptor expressed in HEK293 cell membranes assessed as inhibition constant incubated for 90 mins by liquid scintillation spectrometry analysis. On the set-up: species or system Membrane.
The target of data set [1] is T1, G-protein coupled receptor 55 (Homo sapiens, UniProt Q9Y2T6). Description: Antagonist activity at beta-galactosidase fused human GPR55 expressed in CHO cells assessed as inhibition of LPI-induced receptor activation by measuring beta-arrestin 2 recruitment incubated for 90 mins by PathHunter chemiluminescence based assay. Format: cell-based. (In general: Recruitment of arrestin is a read-out of receptor activation apart from second messengers.)

For data set [2], the target named is T1, G-protein coupled receptor 55. The experiment in a line: Antagonist activity at human GPR55 expressed in human U2OS cells assessed as inhibition of LPI-induced receptor activation by measuring beta-arrestin 2 recruitment preincubated for 30 mins followed by LPI addition and measured after 75 mins by microplate reader analysis. Type of data set: cell-based.

Data set [3] shares this target. Description: Antagonist activity at beta-galactosidase fused human GPR55 expressed in CHO cells assessed as inhibition of LPI-induced receptor activation by measuring beta-arrestin 2 recruitment at upto 10 uM incubated for 90 mins by PathHunter chemiluminescence based assay. Type of data set: cell-based.
Another data set deals with CHO. The experiment in a line: Cytotoxicity against CHO cells assessed as reduction in cell viability at upto 10 uM incubated for 24 hrs by XTT assay. Format: toxicity, cell-based, Cricetulus griseus. The settings on record: chinese hamster. On the technique in general: Tetrazolium assays rely on reduction of a dye to a coloured formazan, in cell work by metabolically active cells.

Data set [4] has as its target T1, G-protein coupled receptor 55. The experiment in a line: Inverse agonist activity at human GPR55 expressed in HEK293 cells coexpressing serum response element assessed as reduction in MAPK/ERK signalling pathway by measuring SRE response incubated for 5 hrs in serum-free medium by luciferin based bioluminescence analysis. Format: cell-based.
Data set [5] has the same target. The experiment in a line: Antagonist activity at human GPR55 expressed in HEK293 cells coexpressing serum response element assessed as inhibition of LPI-induced MAPK/ERK signalling pathway by measuring SRE response incubated for 5 hrs in serum-free medium by luciferin based bioluminescence analysis. Format: cell-based.

Activity calls are given as the source filed them. The calls are words filed in the database; no cut-off is given here.

Cannabinoid receptor 2, sequence (P34972 whole entry): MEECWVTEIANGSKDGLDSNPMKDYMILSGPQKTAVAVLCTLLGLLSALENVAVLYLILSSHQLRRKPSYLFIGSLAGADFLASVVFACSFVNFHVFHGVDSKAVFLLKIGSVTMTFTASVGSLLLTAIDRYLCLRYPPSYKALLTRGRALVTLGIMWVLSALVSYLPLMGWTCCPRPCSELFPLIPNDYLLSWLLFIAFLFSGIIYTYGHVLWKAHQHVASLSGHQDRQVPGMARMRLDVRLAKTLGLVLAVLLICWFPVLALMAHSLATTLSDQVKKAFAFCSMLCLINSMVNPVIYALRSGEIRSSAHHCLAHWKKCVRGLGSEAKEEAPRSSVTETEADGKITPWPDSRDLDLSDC
T1 sequence (Q9Y2T6 whole entry, the tested form may be a part): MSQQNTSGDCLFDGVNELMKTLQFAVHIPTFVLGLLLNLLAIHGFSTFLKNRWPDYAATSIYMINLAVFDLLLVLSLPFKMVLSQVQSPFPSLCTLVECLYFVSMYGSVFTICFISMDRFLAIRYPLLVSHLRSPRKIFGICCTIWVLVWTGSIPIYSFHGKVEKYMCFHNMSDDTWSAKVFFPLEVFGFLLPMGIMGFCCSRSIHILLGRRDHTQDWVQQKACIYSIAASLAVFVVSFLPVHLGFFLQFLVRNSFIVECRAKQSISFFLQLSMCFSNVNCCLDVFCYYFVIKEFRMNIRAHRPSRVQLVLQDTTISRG
Cannabinoid receptor 1, sequence (P21554 whole entry, the tested form may be a part): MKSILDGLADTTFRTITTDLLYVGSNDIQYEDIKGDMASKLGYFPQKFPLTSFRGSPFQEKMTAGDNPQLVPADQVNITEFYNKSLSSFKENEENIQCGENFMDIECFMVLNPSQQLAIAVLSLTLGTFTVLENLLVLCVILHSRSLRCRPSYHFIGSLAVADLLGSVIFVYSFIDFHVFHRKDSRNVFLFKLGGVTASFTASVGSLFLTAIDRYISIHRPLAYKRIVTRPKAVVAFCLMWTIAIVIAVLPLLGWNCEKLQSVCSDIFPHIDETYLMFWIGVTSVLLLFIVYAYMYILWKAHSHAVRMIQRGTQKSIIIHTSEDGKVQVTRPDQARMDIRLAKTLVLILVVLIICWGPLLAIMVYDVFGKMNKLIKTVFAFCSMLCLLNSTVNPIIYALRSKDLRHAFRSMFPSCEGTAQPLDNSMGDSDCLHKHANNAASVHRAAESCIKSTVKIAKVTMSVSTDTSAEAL

Usually Ki stands for a measure of affinity in units of concentration, obtained from inhibition or displacement. In the case of `Cc1nc(N2CCN(C(=O)c3ccco3)CC2)c2c(n1)sc1ccccc12`, the Ki at Cannabinoid receptor 2 and on Cannabinoid receptor 1 was more than 4 µM in each case.

Regarding `Cc1nc(O)c(C)c(Cl)n1`, the Ki on Cannabinoid receptor 2 and on Cannabinoid receptor 1 was more than 4 µM throughout.

By IC50 is commonly meant the point on the concentration scale where inhibition reaches its midpoint. Regarding `CC1(C)CCc2c(sc3nc(CCO)nc(N4CCN(C(=O)c5ccco5)CC4)c23)C1`, the IC50 in data set [1] was found to be 11.7 µM.

As for `Cc1nc(N2CCN(C(=O)c3ccco3)CC2)c2c3c(sc2n1)CC(C)CC3` (stereo not drawn), the IC50 in data set [2] came to 0.43 µM.

With `Cc1cc(C)c2nc(-c3ccccn3)cc(C(=O)O)c2c1`, the Ki on Cannabinoid receptor 2 and at Cannabinoid receptor 1 was more than 4 µM each time.

`CC1(C)CCc2c(sc3nc(CN4CCOCC4)nc(N4CCN(C(=O)c5ccco5)CC4)c23)C1`: the inhibition result in data set [3] is “inactive”.

`CC1(C)CCc2c(sc3nc(CCN4CCOCC4)nc(N4CCN(C(=O)c5ccco5)CC4)c23)C1`: the Ki at Cannabinoid receptor 2 and at Cannabinoid receptor 1 was more than 4 µM throughout. In data set [3], the inhibition entry is “inactive”.

As for `Cc1c(N2CCN(C(=O)c3ccco3)CC2)nc(C)n(C)c1=O`, in data set [3], the inhibition result was “inactive”.

For `COCc1nc(N2CCN(C(=O)c3ccco3)CC2)c2c3c(sc2n1)CC(C)(C)CC3`, the inhibition constant (Ki) at Cannabinoid receptor 2 and on Cannabinoid receptor 1 was more than 4 µM throughout. Besides, the inhibition entry in data set [3] was “inactive”.

`Cc1nc(Nc2ccc(S(=O)(=O)Nc3onc(C)c3C)cc2)c2c3c(sc2n1)CC(C)(C)CC3`: the half-maximal inhibitory concentration (IC50) in data set [1] turned out to be 3.35 µM.

Regarding `O=C(c1ccco1)N1CCN(c2nc(C3CC3)nc3sc4c(c23)CCCC4)CC1`, the half-maximal inhibitory concentration (IC50) in data set [2] was 0.86 µM.

On to `CC1(C)CCc2c(sc3nc(CO)nc(N4CCN(C(=O)c5ccco5)CC4)c23)C1`, for which the Ki at Cannabinoid receptor 2 and at Cannabinoid receptor 1 was more than 4 µM in each case.

For `O=C(c1ccco1)N1CCN(c2ncnc3sc4c(c23)CCCC4)CC1`, the inhibitory constant (Ki) at Cannabinoid receptor 2 and at Cannabinoid receptor 1 was more than 4 µM each time. Further, the IC50 in data set [1] worked out at 0.68 µM.

As usually defined, the EC50 is the concentration giving half of the maximal effect. Consider `Cc1nc(N2CCN(C(=O)c3ccco3)CC2)c2c3c(sc2n1)CC(C)(C)CC3`, for which the Ki at Cannabinoid receptor 2 and on Cannabinoid receptor 1 was more than 4 µM each time. Also, the IC50 in data set [1] is 0.28 µM; in data set [5], 1.5 µM. The Activity result with CHO is “Non-Toxic”. In addition, the EC50 in data set [4] was determined as 0.9 µM.

In the case of `O=C(c1ccco1)N1CCN(c2nc(CCl)nc3sc4c(c23)CCCC4)CC1`, the inhibition constant (Ki) at Cannabinoid receptor 2 and on Cannabinoid receptor 1 was more than 4 µM throughout.

Turning to `Cc1nc(O)c(C)c(N2CCN(C(=O)c3ccco3)CC2)n1`, the inhibition entry in data set [3] was “inactive”.

On to `O=C(c1ccco1)N1CCN(c2ncnn3cccc23)CC1`, for which the inhibition result in data set [3] was “inactive”.

For the compound `Cc1nc(N2CCCN(C(=O)c3ccco3)CC2)c2c3c(sc2n1)CCCC3`, the inhibitory constant (Ki) on Cannabinoid receptor 2 and at Cannabinoid receptor 1 was more than 4 µM each time.

With `Cc1nc(Nc2ccc(S(=O)(=O)Nc3onc(C)c3C)cc2)c2c3c(sc2n1)CCCC3`, the IC50 in data set [1] was found to be 29.3 µM.

For `Cc1cc(C)c2nc(-c3ccccn3)cc(C(=O)N3CCN(C(=O)c4ccco4)CC3)c2c1`, the inhibition entry in data set [3] is “inactive”.

`O=c1cnc(Cl)c[nH]1`: the Ki at Cannabinoid receptor 2 and on Cannabinoid receptor 1 was more than 4 µM throughout.

Consider `Cn1ncc2ncnc(N3CCN(C(=O)c4ccco4)CC3)c21`, for which, in data set [3], the inhibition result is “inactive”.

With `Cc1nc(N2CCN(C(=O)c3ccco3)CC2)c2c3c(sc2n1)CCCC3`, the figures for the IC50 in data set [1] and in data set [5] were 2.02 µM and 7.5 µM, respectively.

Consider `Cc1nc(N2CCCN(C(=O)c3ccco3)CC2)c2c3c(sc2n1)CC(C)(C)CC3`, for which the inhibition constant Ki on Cannabinoid receptor 2 and on Cannabinoid receptor 1 was more than 4 µM throughout.

Consider `O=C(c1ccco1)N1CCN(c2c[nH]c(=O)cn2)CC1`, for which, in data set [3], the inhibition entry is “inactive”.

As to `Cc1c(Cl)nc(C)n(C)c1=O`, the Ki on Cannabinoid receptor 2 and on Cannabinoid receptor 1 was more than 4 µM throughout.

Turning to `O=C(c1ccco1)N1CCN(c2ncnc3sc(-c4ccccc4)cc23)CC1`, the inhibition result in data set [3] was “inactive”.

Take `Cc1ccc2c(c1)sc1nc(C)nc(N3CCN(C(=O)c4ccco4)CC3)c12`: the inhibition constant (Ki) at Cannabinoid receptor 2 and on Cannabinoid receptor 1 was more than 4 µM each time.

With `COCCc1nc(N2CCN(C(=O)c3ccco3)CC2)c2c3c(sc2n1)CC(C)(C)CC3`, the Ki on Cannabinoid receptor 2 and at Cannabinoid receptor 1 was more than 4 µM throughout. Besides, the inhibition entry in data set [3] is “inactive”.
